Values belong to the molecule of their own block, whether it stands above or below them.
What was measured:
[1] = target: T1, Solute carrier family 22 member 6 (Rattus norvegicus, UniProt O35956); experiment: TP_TRANSPORTER: inhibition of PAH uptake (PAH: 50 uM, Urate; 1000 uM) in Xenopus laevis oocytes; assay type: functional, cell-based; conditions: oocyte
T1 sequence (O35956 whole entry): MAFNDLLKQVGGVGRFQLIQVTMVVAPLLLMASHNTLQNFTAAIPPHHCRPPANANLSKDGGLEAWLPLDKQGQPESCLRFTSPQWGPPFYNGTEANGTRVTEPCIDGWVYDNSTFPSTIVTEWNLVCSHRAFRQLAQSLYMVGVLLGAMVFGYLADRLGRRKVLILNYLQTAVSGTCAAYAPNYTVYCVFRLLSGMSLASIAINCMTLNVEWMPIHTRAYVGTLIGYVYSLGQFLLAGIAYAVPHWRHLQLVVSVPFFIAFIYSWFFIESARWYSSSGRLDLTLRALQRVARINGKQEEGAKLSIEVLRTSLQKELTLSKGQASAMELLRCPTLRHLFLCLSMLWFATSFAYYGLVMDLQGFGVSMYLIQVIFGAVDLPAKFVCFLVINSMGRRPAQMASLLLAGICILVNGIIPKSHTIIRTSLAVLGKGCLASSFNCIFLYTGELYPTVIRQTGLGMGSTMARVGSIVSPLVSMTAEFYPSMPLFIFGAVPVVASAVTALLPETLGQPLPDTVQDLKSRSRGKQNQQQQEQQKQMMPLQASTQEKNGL

[2] = substrate: Nc1ccc(C(=O)NCC(=O)O)cc1; experiment: cells, lysate or membranes named

Activity [1]: is not an inhibitor [-]
Molecule: O=c1[nH]c(=O)c2[nH]c(=O)[nH]c2[nH]1 [URIC ACID]

B1: Solute carrier family 22 member 6 (Rattus norvegicus) (protein)
chain: T1 sequence (O35956 whole entry)
Km [2]: 70 µM

Reference: ChEMBL document CHEMBL2074264, “Expression cloning and characterization of ROAT1. The basolateral organic anion transporter in rat kidney” (J Biol Chem, 1997)
